# Biological target: BRD4 (BDI_K57-E168) (Homo sapiens, UniProt O60885)
# Assay: TR-FRET bromodomain binding assay, BRD4 BDI
# Details: not given
row,Molecule,Ki
1,"Cc1cc(F)cc(C)c1Oc1ccc(C(C)(C)O)cc1-c1cn(C)c(=O)cc1O[C@H]1CC[C@H](N2CC(C)(C)CC2=O)CC1 [Example 120, 4-{[trans-4-(4,4-dimethyl-2-oxopyrrolidin-1-yl)cyclohexyl]oxy}-5-[2-(4-fluoro-2,6-dimethylphenoxy)-5-(2-hydroxypropan-2-yl)phenyl]-1-methylpyridin-2(1H)-one]",0.891 µM
2,"Cc1cc(F)cc(C)c1Oc1ccc(C(C)(C)O)cc1-c1cn(C)c(=O)cc1O[C@H]1CC[C@H](N2NC(=O)CC2=O)CC1 [Example 121, 1-[trans-4-({5-[2-(4-fluoro-2,6-dimethylphenoxy)-5-(2-hydroxypropan-2-yl)phenyl]-1-methyl-2-oxo-1,2-dihydropyridin-4-yl}oxy)cyclohexyl]pyrazolidine-3,5-dione]",> 13 µM
3,"Cc1cc(F)cc(C)c1Oc1ccc(C(C)(C)O)cc1-c1cn(C)c(=O)cc1O[C@H]1CC[C@H](NC(=O)N2CCOCC2)CC1 [Example 122, N-[trans-4-({5-[2-(4-fluoro-2,6-dimethylphenoxy)-5-(2-hydroxypropan-2-yl)phenyl]-1-methyl-2-oxo-1,2-dihydropyridin-4-yl}oxy)cyclohexyl]morpholine-4-carboxamide]",3.67 µM
4,"Cc1cc(F)cc(C)c1Oc1ccc(C(C)(C)O)cc1-c1cn(C)c(=O)cc1O[C@H]1CC[C@H](NC(=O)N2CCNC2=O)CC1 [Example 123, N-[trans-4-({5-[2-(4-fluoro-2,6-dimethylphenoxy)-5-(2-hydroxypropan-2-yl)phenyl]-1-methyl-2-oxo-1,2-dihydropyridin-4-yl}oxy)cyclohexyl]-2-oxoimidazolidine-1-carboxamide]",> 13 µM
5,"Cc1cc(F)cc(C)c1Oc1ccc(C(C)(C)O)cc1-c1cn(C)c(=O)cc1O[C@H]1CC[C@H](N2C(=O)N[C@@H](C)C2=O)CC1 [Example 124, (5S)-3-[trans-4-({5-[2-(4-fluoro-2,6-dimethylphenoxy)-5-(2-hydroxypropan-2-yl)phenyl]-1-methyl-2-oxo-1,2-dihydropyridin-4-yl}oxy)cyclohexyl]-5-methylimidazolidine-2,4-dione]",> 13 µM
6,"Cc1cc(F)cc(C)c1Oc1ccc(C(C)(C)O)cc1-c1cn(C)c(=O)cc1O[C@H]1CC[C@H](N2C(=O)CNC2=O)CC1 [Example 125, 3-[trans-4-({5-[2-(4-fluoro-2,6-dimethylphenoxy)-5-(2-hydroxypropan-2-yl)phenyl]-1-methyl-2-oxo-1,2-dihydropyridin-4-yl}oxy)cyclohexyl]imidazolidine-2,4-dione]",> 13 µM
7,"CCN1CC(=O)N([C@H]2CC[C@H](Oc3cc(=O)n(C)cc3-c3cc(C(C)(C)O)ccc3Oc3c(C)cc(F)cc3C)CC2)C1=O [Example 127, 1-ethyl-3-[trans-4-({5-[2-(4-fluoro-2,6-dimethylphenoxy)-5-(2-hydroxypropan-2-yl)phenyl]-1-methyl-2-oxo-1,2-dihydropyridin-4-yl}oxy)cyclohexyl]imidazolidine-2,4-dione]",8.85 µM
8,"CNC(=O)N[C@H]1CC[C@H](Oc2cc(=O)n(C)cc2-c2cc(C(C)(C)O)ccc2Oc2c(C)cc(F)cc2C)CC1 [Example 128, N-[trans-4-({5-[2-(4-fluoro-2,6-dimethylphenoxy)-5-(2-hydroxypropan-2-yl)phenyl]-1-methyl-2-oxo-1,2-dihydropyridin-4-yl}oxy)cyclohexyl]-N′-methylurea]",2.11 µM
9,"Cc1ccc(=O)n([C@H]2CC[C@H](Oc3cc(=O)n(C)cc3-c3cc(C(C)(C)O)ccc3Oc3c(C)cc(F)cc3C)CC2)n1 [Example 130, 2-[trans-4-({5-[2-(4-fluoro-2,6-dimethylphenoxy)-5-(2-hydroxypropan-2-yl)phenyl]-1-methyl-2-oxo-1,2-dihydropyridin-4-yl}oxy)cyclohexyl]-6-methylpyridazin-3(2H)-one]",3.19 µM
10,"Cc1cc(F)cc(C)c1Oc1ccc(C(C)(C)O)cc1-c1cn(C)c(=O)cc1O[C@H]1CC[C@H](N2C(=O)N[C@H](C(C)C)C2=O)CC1 [Example 131, (5R)-3-[trans-4-({5-[2-(4-fluoro-2,6-dimethylphenoxy)-5-(2-hydroxypropan-2-yl)phenyl]-1-methyl-2-oxo-1,2-dihydropyridin-4-yl}oxy)cyclohexyl]-5-(propan-2-yl)imidazolidine-2,4-dione]",6.32 µM
11,"Cc1cc(F)cc(C)c1Oc1ccc(C(C)(C)O)cc1-c1cn(C)c(=O)cc1O[C@H]1CC[C@H](N2C(=O)N[C@H](C)C2=O)CC1 [Example 132, (5R)-3-[trans-4-({5-[2-(4-fluoro-2,6-dimethylphenoxy)-5-(2-hydroxypropan-2-yl)phenyl]-1-methyl-2-oxo-1,2-dihydropyridin-4-yl}oxy)cyclohexyl]-5-methylimidazolidine-2,4-dione]",4.21 µM
12,"CC=C1NC(=O)N([C@H]2CC[C@H](Oc3cc(=O)n(C)cc3-c3cc(C(C)(C)O)ccc3Oc3c(C)cc(F)cc3C)CC2)C1=O [Example 133, 5-ethylidene-3-[trans-4-({5-[2-(4-fluoro-2,6-dimethylphenoxy)-5-(2-hydroxypropan-2-yl)phenyl]-1-methyl-2-oxo-1,2-dihydropyridin-4-yl}oxy)cyclohexyl]imidazolidine-2,4-dione]",> 13 µM
13,"COCCN1CC(=O)N([C@H]2CC[C@H](Oc3cc(=O)n(C)cc3-c3cc(C(C)(C)O)ccc3Oc3c(C)cc(F)cc3C)CC2)C1=O [Example 135, 3-[trans-4-({5-[2-(4-fluoro-2,6-dimethylphenoxy)-5-(2-hydroxypropan-2-yl)phenyl]-1-methyl-2-oxo-1,2-dihydropyridin-4-yl}oxy)cyclohexyl]-1-(2-methoxyethyl)imidazolidine-2,4-dione]",3.68 µM
14,"Cc1cc(F)cc(C)c1Oc1ccc(C(C)(C)O)cc1-c1cn(C)c(=O)cc1O[C@H]1CC[C@H](N2C(=O)NC3(CC3)C2=O)CC1 [Example 136, 6-[trans-4-({5-[2-(4-fluoro-2,6-dimethylphenoxy)-5-(2-hydroxypropan-2-yl)phenyl]-1-methyl-2-oxo-1,2-dihydropyridin-4-yl}oxy)cyclohexyl]-4,6-diazaspiro[2.4]heptane-5,7-dione]",2.47 µM
15,"Cc1cc(F)cc(C)c1Oc1ccc(C(C)(C)O)cc1-c1cn(C)c(=O)cc1O[C@H]1CC[C@H](N2C(=O)[C@H]3CCCN3C2=O)CC1 [Example 138, (7aR)-2-[trans-4-({5-[2-(4-fluoro-2,6-dimethylphenoxy)-5-(2-hydroxypropan-2-yl)phenyl]-1-methyl-2-oxo-1,2-dihydropyridin-4-yl}oxy)cyclohexyl]tetrahydro-1H-pyrrolo[1,2-c]imidazole-1,3(2H)-dione]",12.8 µM
16,"Cc1cc(F)cc(C)c1Oc1ccc(C(C)(C)O)cc1-c1cn(C)c(=O)cc1O[C@H]1CC[C@H](NC(=O)C(C)(C)N)CC1 [Example 139, N-[trans-4-({5-[2-(4-fluoro-2,6-dimethylphenoxy)-5-(2-hydroxypropan-2-yl)phenyl]-1-methyl-2-oxo-1,2-dihydropyridin-4-yl}oxy)cyclohexyl]-2-methylalaninamide]",0.645 µM
17,"Cc1cc(F)cc(C)c1Oc1ccc(C(C)(C)O)cc1-c1cn(C)c(=O)cc1O[C@H]1CC[C@H](N2C(=O)NC(C)(C)C2=O)CC1 [Example 140, 3-[trans-4-({5-[2-(4-fluoro-2,6-dimethylphenoxy)-5-(2-hydroxypropan-2-yl)phenyl]-1-methyl-2-oxo-1,2-dihydropyridin-4-yl}oxy)cyclohexyl]-5,5-dimethylimidazolidine-2,4-dione]",11.2 µM
18,"Cc1cc(F)cc(C)c1Oc1ccc(C(C)(C)O)cc1-c1cn(C)c(=O)cc1O[C@H]1CC[C@H](n2ncccc2=O)CC1 [Example 141, 2-[trans-4-({5-[2-(4-fluoro-2,6-dimethylphenoxy)-5-(2-hydroxypropan-2-yl)phenyl]-1-methyl-2-oxo-1,2-dihydropyridin-4-yl}oxy)cyclohexyl]pyridazin-3(2H)-one]",4.09 µM
19,"Cc1cc(F)cc(C)c1Oc1ccc(C(C)(C)O)cc1-c1cn(C)c(=O)cc1O[C@H]1CC[C@H](N2C(=O)N(C)C(C)(C)C2=O)CC1 [Example 142, 3-[trans-4-({5-[2-(4-fluoro-2,6-dimethylphenoxy)-5-(2-hydroxypropan-2-yl)phenyl]-1-methyl-2-oxo-1,2-dihydropyridin-4-yl}oxy)cyclohexyl]-1,5,5-trimethylimidazolidine-2,4-dione]",0.94 µM
20,"Cc1cc(F)cc(C)c1Oc1ccc(C(C)(C)O)cc1-c1cn(C)c(=O)cc1O[C@H]1CC[C@H](n2cccnc2=O)CC1 [Example 143, 1-[trans-4-({5-[2-(4-fluoro-2,6-dimethylphenoxy)-5-(2-hydroxypropan-2-yl)phenyl]-1-methyl-2-oxo-1,2-dihydropyridin-4-yl}oxy)cyclohexyl]pyrimidin-2(1H)-one]",5.24 µM
21,"Cc1cc(F)cc(C)c1Oc1ccc(C(C)(C)O)cc1-c1cn(C)c(=O)cc1O[C@H]1CC[C@H](n2cnccc2=O)CC1 [Example 144, 3-[trans-4-({5-[2-(4-fluoro-2,6-dimethylphenoxy)-5-(2-hydroxypropan-2-yl)phenyl]-1-methyl-2-oxo-1,2-dihydropyridin-4-yl}oxy)cyclohexyl]pyrimidin-4(3H)-one]",> 13 µM
22,"Cc1cc(F)cc(C)c1Oc1ccc(C(C)(C)O)cc1-c1cn(C)c(=O)cc1O[C@H]1CC[C@H](N2C(=O)N(C)C3(CC3)C2=O)CC1 [Example 145, 6-[trans-4-({5-[2-(4-fluoro-2,6-dimethylphenoxy)-5-(2-hydroxypropan-2-yl)phenyl]-1-methyl-2-oxo-1,2-dihydropyridin-4-yl}oxy)cyclohexyl]-4-methyl-4,6-diazaspiro[2.4]heptane-5,7-dione]",> 13 µM

# Same assay, conditions: mean Ki; 12 nM His tagged BRD4 (BDI_K57-E168), 100 nM Alexa647 probe; Ki calculated from IC50, probe Kd and probe concentration
row,Molecule,Ki
1,"methyl [trans-4-({5-[2-(4-fluoro-2,6-dimethylphenoxy)-5-(2-hydroxypropan-2-yl)phenyl]-1-methyl-2-oxo-1,2-dihydropyridin-4-yl}oxy)cyclohexyl]methylcarbamate [Example 21]",3.02 µM
